Reference: patent US10865191B2, “Heterocyclic compounds useful as modulators of TNF alpha” (BRISTOL-MYERS SQUIBB COMPANY, priority 2015, dated 2020)

The molecules below were run against TNFα (Homo sapiens, UniProt P01375) (assay: TNF induced HEK-Blue assay (NF-kB-driven secreted alkaline phosphatase reporter)). Conditions: TNF induced HEK-Blue assay IC50 value, TNFα 0.5 ng/mL, HEK-Blue-CD40L cells, 18 h.
Format: cell-based
How it was run: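 HEK-Blue-CD40L cells (NF-kB-driven SEAP reporter), 20,000/well, added after 30 min pre-incubation of compound (0.004–25 μM final) with TNFα 0.5 ng/mL final at 37 °C; 18 h incubation. SEAP read with QUANTI-Blue at 620 nm; IC50 from 4-parameter logistic fit, normalized to unstimulated and stimulated DMSO controls.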

TNFα, sequence (P01375 77-233 limits assumed): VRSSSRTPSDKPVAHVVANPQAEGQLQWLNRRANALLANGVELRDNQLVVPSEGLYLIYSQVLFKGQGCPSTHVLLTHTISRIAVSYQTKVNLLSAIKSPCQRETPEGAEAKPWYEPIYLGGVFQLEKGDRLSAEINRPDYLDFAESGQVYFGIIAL

Question: Which IC50 does the source give for `Cc1ccc(C)c(Nc2c(Cl)c(C)nc3ccc(-c4cnc(C(C)(C)O)nc4)cc23)c1` [Example 1, 2-(5-(3-chloro-4-((2,5-dimethylphenyl)amino)-2-methylquinolin-6-yl)pyrimidin-2-yl)propan-2-ol] here?
Answer: < 1 µM

Same assay, conditions: TNFα 0.5 ng/mL, HEK-Blue-CD40L cells, 18 h; read-out: TNF induced HEK-Blue assay IC50 value

Question: How did the IC50 turn out when `CC(O)C(=O)N1CCN(c2ncc(-c3cc4c(NC(C)c5ccccc5F)c(Cl)cnc4cc3F)cn2)CC1` (single isomer, unassigned) [Example 603, 1-(4-(5-(3-chloro-7-fluoro-4-((1-(2-fluorophenyl)ethyl)amino)quinolin-6-yl)pyrimidin-2-yl)piperazin-1-yl)-2-hydroxypropan-1-one] was run?
Answer: < 1 µM

Question: With `CC(Nc1c(Cl)cnc2cc(F)c(-c3cnc(N4CCN(C(=O)[C@@H](N)CO)CC4)nc3)cc12)c1ccccc1F` (single isomer, unassigned) [Example 604] as the molecule, how does the IC50 read?
Answer: < 1 µM

Question: `CC(Nc1c(Cl)cnc2cc(F)c(-c3cnc(N4CCN(C(=O)[C@@H](N)CC(=O)O)CC4)nc3)cc12)c1ccccc1F` (single isomer, unassigned) [Example 605, (3 S)-3-amino-4-(4-(5-(3-chloro-7-fluoro-4-((1-(2-fluorophenyl)ethyl)amino)quinolin-6-yl)pyrimidin-2-yl)piperazin-1-yl)-4-oxobutanoic acid] was tested. Which IC50 did it give?
Answer: < 1 µM

Question: How did the IC50 turn out when `CC(Nc1c(Cl)cnc2cc(F)c(-c3cnc(N4CCN(C(=O)[C@H](N)CO)CC4)nc3)cc12)c1ccccc1F` (single isomer, unassigned) [Example 606] was run?
Answer: < 1 µM

Question: `CC(Nc1c(Cl)cnc2cc(F)c(-c3cnc(N4CCN(C(=O)[C@H](N)CC(=O)O)CC4)nc3)cc12)c1ccccc1F` (single isomer, unassigned) [Example 607] was tested. Which IC50 did it give?
Answer: < 1 µM

Question: With `CC(Nc1c(Cl)cnc2cc(F)c(-c3cnc(N4CCNCC4)nc3)cc12)c1ccccc1F` (single isomer, unassigned) [Example 608, 3-chloro-7-fluoro-N-(1-(2-fluorophenyl)ethyl)-6-(2-(piperazin-1-yl)pyrimidin-5-yl)quinolin-4-amine] as the molecule, how does the IC50 read?
Answer: < 1 µM

Question: For `CC(Nc1c(Cl)cnc2cc(F)c(-c3cnc(C(O)CN4CCC(C(=O)O)CC4)nc3)cc12)c1ccccc1F` (single isomer, unassigned) [Example 610, 1-(2-(5-(3-chloro-7-fluoro-4-((1-(2-fluorophenyl)ethyl)amino)quinolin-6-yl)pyrimidin-2-yl)-2-hydroxyethyl) piperidine-4-carboxylic acid], which IC50 is on record?
Answer: < 1 µM

Question: With `CC(Nc1c(Cl)cnc2cc(F)c(-c3cnc(N4C[C@H]5CC[C@@H](C4)C5C(=O)O)nc3)cc12)c1ccccc1F` (single isomer, unassigned) [Example 611] as the molecule, how does the IC50 read?
Answer: < 1 µM

Question: With `CC(Nc1c(Cl)cnc2c(F)cc(-c3cnc(C(C)(C)O)nc3)cc12)c1cc(Br)ccc1F` (single isomer, unassigned) [Example 612, 2-(5-(4-((1-(5-bromo-2-fluorophenyl)ethyl)amino)-3-chloro-8-fluoroquinolin-6-yl)pyrimidin-2-yl)propan-2-ol] as the molecule, how does the IC50 read?
Answer: < 1 µM

Question: `Cc1ccc(C)c(NCc2nc3ccc(-c4cnn(C)c4)cc3c(Nc3cc(C)ccc3C)c2Cl)c1` [Example 2, 3-chloro-N-(2,5-dimethylphenyl)-2-(((2,5-dimethylphenyl)amino)methyl)-6-(1-methyl-1H-pyrazol-4-yl)quinolin-4-amine] was tested. Which IC50 did it give?
Answer: 10 to 25 µM

Question: For `Cc1ccc(C)c(NCc2nc3ccc(-c4ccc(C#N)nc4)cc3c(Nc3cc(C)ccc3C)c2Cl)c1` [Example 3, 5-(3-chloro-4-((2,5-dimethylphenyl)amino)-2-(((2,5-dimethylphenyl)amino)methyl)quinolin-6-yl)picolinonitrile], which IC50 is on record?
Answer: 1 to 10 µM

Question: How did the IC50 turn out when `CCOC(=O)c1nc2ccc(-c3ccc(C#N)nc3)cc2c(Nc2cc(C)ccc2C)c1Cl` [Example 5, ethyl 3-chloro-6-(6-cyanopyridin-3-yl)-4-((2,5-dimethylphenyl)amino)quinoline-2-carboxylate] was run?
Answer: 1 to 10 µM

Question: `Cc1ccc(C)c(Nc2c(Cl)c(C)nc3ccc(-c4ccc(CN5CCN(C(=O)OC(C)(C)C)CC5)cc4)cc23)c1` [Example 6, tert-butyl 4-(4-(3-chloro-4-((2,5-dimethylphenyl)amino)-2-methylquinolin-6-yl)benzyl)piperazine-1-carboxylate] was tested. Which IC50 did it give?
Answer: 1 to 10 µM

Question: With `Cc1ccc(C)c(Nc2c(Cl)c(C)nc3ccc(-c4ccc(CN5CCNCC5)cc4)cc23)c1` [Example 7, 3-chloro-N-(2,5-dimethylphenyl)-2-methyl-6-(4-(piperazin-1-ylmethyl)phenyl)quinolin-4-amine] as the molecule, how does the IC50 read?
Answer: < 1 µM

Question: With `CNC(=O)c1ccc(-c2ccc3nc(C)c(Cl)c(Nc4cc(C)ccc4C)c3c2)cn1` [Example 8, 5-(3-chloro-4-((2,5-dimethylphenyl)amino)-2-methylquinolin-6-yl)-N-methylpicolinamide] as the molecule, how does the IC50 read?
Answer: < 1 µM

Question: How did the IC50 turn out when `Cc1ccc(C)c(Nc2c(Cl)c(C)nc3ccc(-c4ccc(C(=O)O)nc4)cc23)c1` [Example 9, 5-(3-chloro-4-((2,5-dimethylphenyl)amino)-2-methylquinolin-6-yl)picolinic acid] was run?
Answer: 10 to 25 µM

Question: For `CC(C)(O)c1ncc(-c2ccc3ncc(Cl)c(CNc4ccccc4)c3c2)cn1` [Example 11, 2-(5-(3-chloro-4-((phenylamino)methyl)quinolin-6-yl)pyrimidin-2-yl)propan-2-ol], which IC50 is on record?
Answer: 10 to 25 µM

Question: For `O=C(O)CNCc1ccc(-c2ccc3ncc(Cl)c(N[C@@H](c4ccccc4F)C(F)F)c3c2)cc1` [Example 13, (S)-(4-(3-chloro-4-((2,2-difluoro-1-(2-fluorophenyl)ethyl)amino)quinolin-6-yl)benzyl)glycine], which IC50 is on record?
Answer: 10 to 25 µM

Question: How did the IC50 turn out when `COC(=O)CN1CCN(c2ncc(-c3ccc4ncc(Cl)c(N[C@@H](c5ccccc5F)C(F)F)c4c3)cn2)CC1` [Example 14, (S)-methyl 2-(4-(5-(3-chloro-4-((2,2-difluoro-1-(2-fluorophenyl)ethyl)amino)quinolin-6-yl)pyrimidin-2-yl)piperazin-1-yl)acetate] was run?
Answer: < 1 µM

Question: For `O=C(O)CN1CCN(c2ccc(-c3ccc4ncc(Cl)c(N[C@@H](c5ccccc5F)C(F)F)c4c3)cn2)CC1` [Example 15, (S)-2-(4-(5-(3-chloro-4-((2,2-difluoro-1-(2-fluorophenyl)ethyl)amino)quinolin-6-yl)pyridin-2-yl)piperazin-1-yl)acetic acid], which IC50 is on record?
Answer: < 1 µM

Question: Which IC50 does the source give for `O=C(O)CN1CCN(c2ccc(-c3ccc4ncc(Cl)c(N[C@@H](c5ccccc5F)C(F)F)c4c3)cc2)CC1` [Example 16, (S)-2-(4-(4-(3-chloro-4-((2,2-difluoro-1-(2-fluorophenyl)ethyl)amino)quinolin-6-yl)phenyl)piperazin-1-yl)acetic acid] here?
Answer: < 1 µM

Question: How did the IC50 turn out when `CNc1ncc(-c2ccc3ncc(Cl)c(N[C@H](C)c4ccccc4F)c3c2)cn1` [Example 17, (R)-3-chloro-N-(1-(2-fluorophenyl)ethyl)-6-(2-(methylamino)pyrimidin-5-yl)quinolin-4-amine] was run?
Answer: 10 to 25 µM

Question: For `CCNCc1ccc(-c2ccc3ncc(Cl)c(N[C@H](C)c4ccccc4F)c3c2)cc1` [Example 29, (R)-3-chloro-6-(4-((ethylamino)methyl)phenyl)-N-(1-(2-fluorophenyl)ethyl)quinolin-4-amine], which IC50 is on record?
Answer: 1 to 10 µM

Question: With `C[C@@H](Nc1c(Cl)cnc2ccc(-c3ccc(CN4CCC4)cc3)cc12)c1ccccc1F` [Example 30, (R)-6-(4-(azetidin-1-ylmethyl)phenyl)-3-chloro-N-(1-(2-fluorophenyl)ethyl)quinolin-4-amine] as the molecule, how does the IC50 read?
Answer: 10 to 25 µM

Question: For `Cc1ccc(C)c(Nc2c(Cl)c(C(=O)O)nc3ccc(-c4ccc(C#N)nc4)cc23)c1` [Example 31, 3-chloro-6-(6-cyanopyridin-3-yl)-4-((2,5-dimethylphenyl)amino)quinoline-2-carboxylic acid], which IC50 is on record?
Answer: 1 to 10 µM

Question: `Cc1ccc(C)c(Nc2c(Cl)c(C(=O)Nc3cccnc3)nc3ccc(-c4ccc(C#N)nc4)cc23)c1` [Example 32, 3-chloro-6-(6-cyanopyridin-3-yl)-4-((2,5-dimethylphenyl)amino)-N-(pyridin-3-yl)quinoline-2-carboxamide] was tested. Which IC50 did it give?
Answer: < 1 µM

Question: For `CNC(=O)c1nc2ccc(-c3ccc(C#N)nc3)cc2c(Nc2cc(C)ccc2C)c1Cl` [Example 33, 3-chloro-6-(6-cyanopyridin-3-yl)-4-((2,5-dimethylphenyl)amino)-N-methylquinoline-2-carboxamide], which IC50 is on record?
Answer: 1 to 10 µM

Question: `Cc1ccc(C)c(Nc2c(Cl)c(C(=O)N(C)C)nc3ccc(-c4ccc(C#N)nc4)cc23)c1` [Example 34, 3-chloro-6-(6-cyanopyridin-3-yl)-4-((2,5-dimethylphenyl)amino)-N,N-dimethylquinoline-2-carboxamide] was tested. Which IC50 did it give?
Answer: 1 to 10 µM

Question: Which IC50 does the source give for `Cc1ccc(C)c(Nc2c(Cl)c(C(=O)Nc3ccccc3)nc3ccc(-c4ccc(C#N)nc4)cc23)c1` [Example 35, 3-chloro-6-(6-cyanopyridin-3-yl)-4-((2,5-dimethylphenyl)amino)-N-phenylquinoline-2-carboxamide] here?
Answer: 1 to 10 µM

Question: Which IC50 does the source give for `Cc1ccc(C)c(Nc2c(Cl)c(C(=O)Nc3ccncc3)nc3ccc(-c4ccc(C#N)nc4)cc23)c1` [Example 36, 3-chloro-6-(6-cyanopyridin-3-yl)-4-((2,5-dimethylphenyl)amino)-N-(pyridin-4-yl)quinoline-2-carboxamide] here?
Answer: < 1 µM

Question: How did the IC50 turn out when `Cc1ccc(C)c(Nc2c(Cl)c(C(=O)Nc3cccnc3)nc3ccc(-c4ccc(C(N)=O)nc4)cc23)c1` [Example 37, 6-(6-carbamoylpyridin-3-yl)-3-chloro-4-((2,5-dimethylphenyl)amino)-N-(pyridin-3-yl) quinoline-2-carboxamide] was run?
Answer: 10 to 25 µM

Question: With `Cc1ccc(C)c(Nc2c(Cl)c(CO)nc3ccc(-c4ccc(C#N)nc4)cc23)c1` [Example 40, 5-(3-chloro-4-((2,5-dimethylphenyl)amino)-2-(hydroxymethyl)quinolin-6-yl)picolinonitrile] as the molecule, how does the IC50 read?
Answer: 1 to 10 µM

Question: With `Cc1ccc(C)c(Nc2c(Cl)c(COc3cccnc3)nc3ccc(-c4ccc(C#N)nc4)cc23)c1` [Example 41, 5-(3-chloro-4-((2,5-dimethylphenyl)amino)-2-((pyridin-3-yloxy)methyl)quinolin-6-yl)picolinonitrile] as the molecule, how does the IC50 read?
Answer: 1 to 10 µM
